From patent US9034859B2, “Sulfated oxysterol and oxysterol sulfation by hydroxysterol sulfotransferase promote lipid homeostasis and liver proliferation” (Virginia Commonwealth University, priority 2011, dated 2015)

Tests used:
SREBP-1c pathway = assay: Western blot of cytoplasmic and nuclear liver extracts, acute treatment; type: in vivo, C57BL/6J female mice; conditions: HFD mice
Description: Animal studies were approved by Institutional Animal Care and Use Committee of McGuire Veterans Affairs Medical Center and were conducted in accordance with the Declaration of Helsinki, the Guide for the Care and Use of Laboratory Animals, and all applicable regulations. […] All mice were housed under identical conditions in an aseptic facility and given free access to water and food. At the end of each period, the mice were intraperitoneally injected with vehicle solution (ethanol/PBS; […] Serum triglyceride, total cholesterol, high density lipoprotein-cholesterol, glucose, alkaline phosphatase (ALK), alanine aminotransferase (ALT), and aspartate aminotransferase (AST) were measured using standard enzymatic techniques in the clinical laboratory at McGuire Veterans Affairs Medical Center. Lipoprotein profiles in sera were analyzed by HPLC as following described. Liver tissues were homogenized, and cytoplasmic and nuclear fractions were extracted with NE-PER Nuclear and Cytoplasmic Extraction Kit (Fisher Scientific, Pittsburgh, Pa.). […] Each positive band was quantified by Advanced Image Data Analyzer (Aida, Straubenhardt, Germany).

LXR signaling pathway = assay: Western blot of LXR and its target genes and PCNA in mouse liver (Example 3); type: in vivo, C57BL/6 mice
Description: Cayman Chemical, Ann Arbor, Mich.); […] […] Metabolism. (Accepted)]. […] Cell lysates were prepared from frozen mouse liver tissues. Total proteins, 100 μg, were separated by 10% SDS-PAGE, and transferred to PVDF membrane (Millipore, Eschbom, Germany). […] Louis, Mo.) was used as a loading control. The immunoreactive bands were detected by Fujifilm Medical System (Fujifilm, Stamford, Conn.) and quantified by Advanced Image Data Analyzer (Aida Inc., Straubenhardt, Germany).

[1] = Serum parameters after acute treatment of HFD- or HCD-fed mice (NAFLD model); type: in vivo, C57BL/6J female mice; conditions: 25 mg/kg i.p. twice, fasted overnight, mean ± SD, n=15-17
Description: (§1) Animal studies were approved by Institutional Animal Care and Use Committee of McGuire Veterans Affairs Medical Center and were conducted in accordance with the Declaration of Helsinki, the Guide for the Care and Use of Laboratory Animals, and all applicable regulations. To examine the effect of 25HC3S on diet-induced lipid accumulation in sera and liver, 8-week-old female C57BL/6J mice (Charles River, Wilmington, Mass.) were randomly assigned to three groups: the first control group was fed a chow diet; the high fat diet (HFD) group was fed a HFD (Harlan Teklad, Madison, Wis.) containing 42% kcal from fat, 43% kcal from carbohydrate, 15% kcal from protein and 0.2% cholesterol; and the high cholesterol diet (HCD) group was fed a 2% cholesterol diet with 18% kcal from fat, 58% kcal from carbohydrate and 24% kcal from protein for 10 weeks, respectively. All mice were housed under identical conditions in an aseptic facility and given free access to water and food. At the end of each period, the mice were intraperitoneally injected with vehicle solution (ethanol/PBS; Vehicle), 25HC (25 mg/kg), or 25HC3S (25 mg/kg) for 2 times and fasted over night for acute treatment (n=15-17 for each group) or once every three days for 6 weeks (n=16 for each group) and fasted 5 hrs for long-term treatment; and blood samples were collected. Serum triglyceride, total cholesterol, high density lipoprotein-cholesterol, glucose, alkaline phosphatase (ALK), alanine aminotransferase (ALT), and aspartate aminotransferase (AST) were measured using standard enzymatic techniques in the clinical laboratory at McGuire Veterans Affairs Medical Center. Lipoprotein profiles in sera were analyzed by HPLC as following described.

[2] = HPLC analysis of 25HC3S and 25HC levels in liver tissues; type: in vivo, C57BL/6J female mice; conditions: HFD mice, acute treatment
[3] = system: lipogenic gene expression; assay: Relative hepatic mRNA expression by real-time RT-PCR, acute treatment; type: in vivo, C57BL/6J female mice; conditions: liver; for ABCA1 relative hepatic mRNA / ABCG1 relative hepatic mRNA / ACC1 relative hepatic mRNA / ACOX1 relative hepatic mRNA / CD36 relative hepatic mRNA / CPT1 relative hepatic mRNA / CYP7α relative hepatic mRNA / CYP27α relative hepatic mRNA / FABP1 relative hepatic mRNA / FAS relative hepatic mRNA / FATP relative hepatic mRNA / G6Pase relative hepatic mRNA / GCK relative hepatic mRNA / GPAM relative hepatic mRNA / LDLR relative hepatic mRNA / LXRα relative hepatic mRNA / MCAD relative hepatic mRNA / MTTP relative hepatic mRNA / PCK1 relative hepatic mRNA / PLTP relative hepatic mRNA / PPARα relative hepatic mRNA / Pkir relative hepatic mRNA / SCD relative hepatic mRNA / SRB1 relative hepatic mRNA / SREBP-1c relative hepatic mRNA / SULT2B1b relative hepatic mRNA: acute treatment (twice), mean ± SD, n=5-6
Description: as §1
Total RNA was isolated with SV Total RNA Isolation Kit (Promega, Madison, Wis.), which included DNase treatment. Total RNA, 2 μg, was used for the first-strand cDNA synthesis as recommended by the manufacturer (Invitrogen, Carlsbad, Calif.). Real-time RT-PCR was performed using SYBR Green as indicator on ABI 7500 Fast Real-Time PCR System (Applied Biosystems, Foster City, Calif.). All primer/probe sets for real-time PCR were TaqMan gene expression assays (Applied Biosystems, Foster City, Calif.). Amplifications of β-actin and GAPDH were used as internal controls. Relative messenger RNA (mRNA) expression was quantified with the comparative cycle threshold (Ct) method and was expressed as 2^−ΔΔCt. Suitable primers were utilized.

[4] = HFD mice, acute treatment, compared to vehicle

CC(CCCC(C)(C)O)C1CCC2C3CC=C4CC(OS(=O)(=O)O)CCC4(C)C3CCC12C (stereo not shown) [25HC3S, 25-hydroxycholesterol-3-sulfate]
suppression of FAS protein level (SREBP-1c pathway): 40%
suppression of cytoplasmic ACC1 protein level (SREBP-1c pathway): 50%
suppression of nuclear SREBP-1c protein level (SREBP-1c pathway): 70%
decrease of ABCA1 protein level (LXR signaling pathway; 5 mg/kg, 48 h): 50%
decrease of LXRα protein level (LXR signaling pathway; 5 mg/kg, 48 h): 40%
decrease of SREBP-1c protein level (LXR signaling pathway; 5 mg/kg, 48 h): 30%
increase of PCNA protein level (LXR signaling pathway; 5 mg/kg, 48 h): 2 fold
ALK ([1]; HCD 10 weeks): 89 ± 19 IU/L
ALT ([1]; HCD 10 weeks): 44 ± 5 IU/L
AST ([1]; HCD 10 weeks): 227 ± 48 IU/L
Cholesterol ([1]; HCD 10 weeks): 86 ± 7 mg/dL
Glucose ([1]; HCD 10 weeks): 249 ± 39 mg/dL
HDL-C ([1]; HCD 10 weeks): 77 ± 7 mg/dL
Triglycerides ([1]; HCD 10 weeks): 43 ± 8 mg/dL
ALK ([1]; HFD 10 weeks): 76 ± 21 IU/L
ALT ([1]; HFD 10 weeks): 47 ± 6 IU/L
AST ([1]; HFD 10 weeks): 222 ± 54 IU/L
Cholesterol ([1]; HFD 10 weeks): 87 ± 24 mg/dL
Glucose ([1]; HFD 10 weeks): 245 ± 50 mg/dL
HDL-C ([1]; HFD 10 weeks): 72 ± 26 mg/dL
Triglycerides ([1]; HFD 10 weeks): 34 ± 9 mg/dL
level of the administered compound in liver [2]: significantly increased
ABCA1 relative hepatic mRNA ([3]; HFD mice): 0.71 ± 0.12
ABCG1 relative hepatic mRNA ([3]; HFD mice): 1.14 ± 0.76
ACC1 relative hepatic mRNA ([3]; HFD mice): 0.56 ± 0.12
ACOX1 relative hepatic mRNA ([3]; HFD mice): 0.82 ± 0.16
CD36 relative hepatic mRNA ([3]; HFD mice): 0.93 ± 0.36
CPT1 relative hepatic mRNA ([3]; HFD mice): 1.05 ± 0.19
CYP7α relative hepatic mRNA ([3]; HFD mice): 0.60 ± 0.18
CYP27α relative hepatic mRNA ([3]; HFD mice): 1.06 ± 0.23
FABP1 relative hepatic mRNA ([3]; HFD mice): 1.14 ± 0.45
FAS relative hepatic mRNA ([3]; HFD mice): 0.33 ± 0.21
FATP relative hepatic mRNA ([3]; HFD mice): 1.05 ± 0.29
G6Pase relative hepatic mRNA ([3]; HFD mice): 1.36 ± 0.77
GCK relative hepatic mRNA ([3]; HFD mice): 1.10 ± 0.68
GPAM relative hepatic mRNA ([3]; HFD mice): 1.16 ± 0.08
LDLR relative hepatic mRNA ([3]; HFD mice): 1.07 ± 0.09
LXRα relative hepatic mRNA ([3]; HFD mice): 0.79 ± 0.10
MCAD relative hepatic mRNA ([3]; HFD mice): 1.36 ± 0.31
MTTP relative hepatic mRNA ([3]; HFD mice): 1.31 ± 0.20
PCK1 relative hepatic mRNA ([3]; HFD mice): 1.02 ± 0.25
PLTP relative hepatic mRNA ([3]; HFD mice): 0.97 ± 0.55
PPARα relative hepatic mRNA ([3]; HFD mice): 0.93 ± 0.35
Pkir relative hepatic mRNA ([3]; HFD mice): 0.61 ± 0.18
SCD relative hepatic mRNA ([3]; HFD mice): 0.93 ± 0.27
SRB1 relative hepatic mRNA ([3]; HFD mice): 1.30 ± 0.22
SREBP-1c relative hepatic mRNA ([3]; HFD mice): 0.56 ± 0.13
SULT2B1b relative hepatic mRNA ([3]; HFD mice): 1.29 ± 0.34
reduction of ACCT mRNA level [3, 4]: 45%
reduction of FAS mRNA level [3, 4]: 70%
reduction of LXRα mRNA level [3, 4]: 20%
reduction of SREBP-1c mRNA level [3, 4]: 45%

C[C@H](CCCC(C)(C)O)[C@H]1CC[C@H]2[C@@H]3CC=C4C[C@@H](O)CC[C@]4(C)[C@H]3CC[C@]12C [25HC, 25-hydroxycholesterol]
nuclear SREBP-1, cytoplasmic ACC1 and FAS protein levels (SREBP-1c pathway): increased
expression of ABCA1 and SREBP-1c (LXR signaling pathway; Ad-Control and 25HC co-treatment group): effectively up-regualted
ALK ([1]; HFD 10 weeks): 55 ± 12 IU/L
ALT ([1]; HFD 10 weeks): 56 ± 14 IU/L
AST ([1]; HFD 10 weeks): 294 ± 57 IU/L
Cholesterol ([1]; HFD 10 weeks): 144 ± 24 mg/dL
Glucose ([1]; HFD 10 weeks): 188 ± 26 mg/dL
HDL-C ([1]; HFD 10 weeks): 119 ± 21 mg/dL
Triglycerides ([1]; HFD 10 weeks): 49 ± 13 mg/dL
level of the administered compound in liver [2]: significantly increased
decrease of ACOX1 mRNA level ([3]; HFD mice, acute treatment): 55%
decrease of PPARα mRNA level ([3]; HFD mice, acute treatment): 40%
decrease of SCD mRNA level ([3]; HFD mice, acute treatment): 40%
increase of ACC1 mRNA level ([3]; HFD mice, acute treatment): 160%
increase of FAS mRNA level ([3]; HFD mice, acute treatment): 150%
increase of SREBP-1c mRNA level ([3]; HFD mice, acute treatment): 170%
increase of SULT2B1b expression ([3]; HFD mice, acute treatment): 3 fold
ABCA1 relative hepatic mRNA ([3]; HFD mice): 1.08 ± 0.24
ABCG1 relative hepatic mRNA ([3]; HFD mice): 1.38 ± 0.78
ACC1 relative hepatic mRNA ([3]; HFD mice): 1.58 ± 0.64
ACOX1 relative hepatic mRNA ([3]; HFD mice): 0.45 ± 0.17
CD36 relative hepatic mRNA ([3]; HFD mice): 0.71 ± 0.24
CPT1 relative hepatic mRNA ([3]; HFD mice): 0.94 ± 0.16
CYP7α relative hepatic mRNA ([3]; HFD mice): 0.19 ± 0.18
CYP27α relative hepatic mRNA ([3]; HFD mice): 1.00 ± 0.12
FABP1 relative hepatic mRNA ([3]; HFD mice): 0.48 ± 0.15
FAS relative hepatic mRNA ([3]; HFD mice): 1.45 ± 0.18
FATP relative hepatic mRNA ([3]; HFD mice): 0.67 ± 0.12
G6Pase relative hepatic mRNA ([3]; HFD mice): 0.25 ± 0.13
GCK relative hepatic mRNA ([3]; HFD mice): 0.57 ± 0.16
GPAM relative hepatic mRNA ([3]; HFD mice): 1.12 ± 0.27
LDLR relative hepatic mRNA ([3]; HFD mice): 1.38 ± 0.50
LXRα relative hepatic mRNA ([3]; HFD mice): 0.98 ± 0.09
MCAD relative hepatic mRNA ([3]; HFD mice): 0.75 ± 0.12
MTTP relative hepatic mRNA ([3]; HFD mice): 1.04 ± 0.14
PCK1 relative hepatic mRNA ([3]; HFD mice): 1.47 ± 0.37
PLTP relative hepatic mRNA ([3]; HFD mice): 0.81 ± 0.36
PPARα relative hepatic mRNA ([3]; HFD mice): 0.59 ± 0.09
Pkir relative hepatic mRNA ([3]; HFD mice): 0.77 ± 0.13
SCD relative hepatic mRNA ([3]; HFD mice): 0.59 ± 0.13
SRB1 relative hepatic mRNA ([3]; HFD mice): 1.52 ± 0.31
SREBP-1c relative hepatic mRNA ([3]; HFD mice): 1.69 ± 0.75
SULT2B1b relative hepatic mRNA ([3]; HFD mice): 3.33 ± 0.89
increase of IL1α expression ([3]; data not shown): 217%
increase of NFκB expression ([3]; data not shown): 168%
